Data as given in patent US10662204B2 (PFIZER INC., priority 2018, dated 2020).

Tests used:
[1] = biological target: KRAS G12C (Homo sapiens, UniProt P01116, G12C); test: Cell Activity Assay: accumulation of GDP-bound KRAS G12C in MIAPaCa-2 cells (Raf-1 RBD capture, MSD readout); assay type: cell-based; design: endogenous in cells; host or cells: MIAPaCa-2; conditions: 6 hours, assay limit is 30.00
Procedure, shortened: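 IC50 came from a 4-parameter fit of Ras signal normalized between DMSO and full-inhibition controls. Readout: lysate GTP-Ras bound to immobilized Raf-1 RBD, quantified with pan-Ras antibody and MSD electrochemiluminescence. Lysates derived from MIAPaCa-2 cells treated 6 h with serially diluted compound, 0.3% DMSO.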

[2] = biological target: T1, GDP-loaded KRAS (1-169) G12C, C51S, C80L, C118S (Homo sapiens, UniProt P01116, C118S/C51S/C80L/G12C); test: Mass Spectrometry Reactivity Assay (MSRA): covalent adduct of compound and KRAS G12C, Percent Modification; assay type: binding; conditions: for MSRA (% modification) 5.0 μM 0.017 hr / MSRA (% modification) 5.0 μM 0.25 hr: 5.0 μM compound; for MSRA (% modification) 10 μM 0.50 hr / MSRA (% modification) 10 μM 0.25 hr: 10 μM compound
T1 construct: GDP-loaded KRAS (1-169) G12C, C51S, C80L, C118S
Procedure, shortened: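 Covalent labelling is measured by intact mass: deconvoluted modified and unmodified peak intensities yield percent modification. Compound, usually 5 μM or 10 μM final, reacts at room temperature with 5 μM GDP-bound KRAS G12C (1-169, C51S/C80L/C118S) in Hepes pH 7.5/NaCl/glycerol, sampled at 1, 15, 30, 60 min.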

IC50 [1] [µM] | MSRA (% modification) 5.0 μM 0.017 hr [2] [%] | MSRA (% modification) 10 μM 0.50 hr [2] [%] | MSRA (% modification) 10 μM 0.25 hr [2] [%] | MSRA (% modification) 5.0 μM 0.25 hr [2] [%] | SMILES
0.006 | 58 |  |  |  | C=CC(=O)N1CCN(c2nc(O[C@@H]3CN(C)C[C@H]3C(F)F)nc3c(Oc4c(Cl)c(F)cc5[nH]ncc45)nccc23)CC1 (single isomer, unassigned) [Example 58I]
2.98 |  | 29 |  |  | C=CC(=O)N1CCN(c2ncnc3c(Oc4c(Cl)ccc5[nH]ncc45)cccc23)CC1 [Example 08C, 1-(4-{8-[(5-chloro-1H-indazol-4-yl)oxy]quinazolin-4-yl}piperazin-1-yl)prop-2-en-1-one]
1.87 |  | 38 |  |  | C=CC(=O)N1CCN(c2ncnc3c(Oc4c(C)ccc5[nH]ncc45)nc(Cl)cc23)CC1 [Example 09A, 1-(4-{6-chloro-8-[(5-methyl-1H-indazol-4-yl)oxy]pyrido[3,4-d]pyrimidin-4-yl}piperazin-1-yl)prop-2-en-1-one]
13.4 |  |  | 60 |  | C=CC(=O)N1CCN(c2nc(OC[C@@H]3CCN(C)C3)nc3c(Oc4c(C)ccc5[nH]ncc45)nccc23)CC1 [Example 10B, 1-[4-(8-[(5-methyl-1H-indazol-4-yl)oxy]-2-{[(3R)-1-methylpyrrolidin-3-yl]methoxy}pyrido[3,4-d]pyrimidin-4-yl)piperazin-1-yl]prop-2-en-1-one]
> 30 |  | 14 |  |  | C=CC(=O)N1CCN(c2nc(NCc3nncn3C)nc3c(Oc4c(C)ccc5[nH]ncc45)cccc23)CC1 [Example 02F, 1-[4-(8-[(5-methyl-1H-indazol-4-yl)oxy]-2-{[(4-methyl-4H-1,2,4-triazol-3-yl)methyl]amino}quinazolin-4-yl)piperazin-1-yl]prop-2-en-1-one]
29.3 |  | 23 |  |  | C=CC(=O)N1CCN(c2nc(N3CC4(C3)C(=O)NCN4C)nc3c(Oc4c(C)ccc5[nH]ncc45)cccc23)CC1 [Example 18F, 2-{4-(4-acryloylpiperazin-1-yl)-8-[(5-methyl-1H-indazol-4-yl)oxy]quinazolin-2-yl}-5-methyl-2,5,7-triazaspiro[3.4]octan-8-one]
4.26 |  |  | 64 |  | C=CC(=O)N1C[C@H](C)N(c2ncnc3c(Oc4c(Cl)c(F)cc5[nH]ncc45)nc(Cl)cc23)C[C@H]1C [Example 35A, 1-[(2R,5S)-4-{6-chloro-8-[(5-chloro-6-fluoro-1H-indazol-4-yl)oxy]pyrido[3,4-d]pyrimidin-4-yl}-2,5-dimethylpiperazin-1-yl]prop-2-en-1-one]
3.95 |  | 68 |  |  | C=CC(=O)N1CCN(c2nc(N3CC(N(C)C)C3)nc3c(Oc4c(Cl)c(C)cc5[nH]ncc45)cc(Cl)cc23)CC1 [Example 11E, 1-(4-{6-chloro-8-[(5-chloro-6-methyl-1H-indazol-4-yl)oxy]-2-[3-(dimethylamino)azetidin-1-yl]quinazolin-4-yl}piperazin-1-yl)prop-2-en-1-one]
10.6 |  | 12 |  |  | C=CC(=O)N1CCN(c2ncnc3c(Oc4c(Cl)c(C)cc5[nH]ncc45)nccc23)C[C@H]1C [Example 21A, 1-[(2R)-4-{8-[(5-chloro-6-methyl-1H-indazol-4-yl)oxy]pyrido[3,4-d]pyrimidin-4-yl}-2-methylpiperazin-1-yl]prop-2-en-1-one]
18.2 |  | 21 |  |  | C=CC(=O)N1CCN(c2ncnc3c(Oc4c(C(F)(F)F)ccc5[nH]ncc45)nccc23)CC1 [Example 04C, 1-[4-(8-{[5-(trifluoromethyl)-1H-indazol-4-yl]oxy}pyrido[3,4-d]pyrimidin-4-yl)piperazin-1-yl]prop-2-en-1-one]
0.01 | 73 |  |  |  | C=CC(=O)N1CCN(c2nc(Oc3cccc4c3CN(C)CC4)nc3c(Oc4c(Cl)c(F)cc5[nH]ncc45)nccc23)CC1 [Example 42I, 1-(4-{8-[(5-chloro-6-fluoro-1H-indazol-4-yl)oxy]-2-[(2-methyl-1,2,3,4-tetrahydro-isoquinolin-8-yl)oxy]pyrido [3,4-d]pyrimidin-4-yl}piperazin-1-yl)prop-2-en-1-one]
29.7 |  | 20 |  |  | C=CC(=O)N1CCN(c2ncnc3c(Oc4cc(O)cc5ccccc45)nccc23)CC1 [Example 06, 1-(4-{8-[(3-Hydroxynaphthalen-1-yl)oxy]pyrido[3,4-d]pyrimidin-4-yl}piperazin-1-yl)prop-2-en-1-one]
0.005 | 82 |  |  |  | C=CC(=O)N1CCN(c2nc(O[C@@H]3CN(C)C[C@H]3OC)nc3c(Oc4c(Cl)c(Cl)cc5[nH]ncc45)nc(Cl)cc23)CC1 [Example 29G, 1-[4-(6-chloro-8-[(5,6-dichloro-1H-indazol-4-yl)oxy]-2-{[(3R,4R)-4-methoxy-1-methylpyrrolidin-3-yl]oxy}pyrido[3,4-d]pyrimidin-4-yl)piperazin-1-yl]prop-2-en-1-one]
24.1 |  | 9 |  |  | C=CC(=O)N1CCN(c2ncnc3c(Oc4c(C)ccc5[nH]nc(C)c45)nccc23)CC1 [Example 17A, 1-(4-{8-[(3,5-dimethyl-1H-indazol-4-yl)oxy]pyrido[3,4-d]pyrimidin-4-yl}piperazin-1-yl)prop-2-en-1-one]
0.004 | 66 |  |  |  | C=CC(=O)N1CCN(c2nc(O[C@@H]3CN(C)C[C@H]3OC)nc3c(Oc4c(Cl)c(Cl)cc5[nH]ncc45)nccc23)CC1 [Example 19H, 1-[4-(8-[(5,6-dichloro-1H-indazol-4-yl)oxy]-2-{[(3R,4R)-4-methoxy-1-methylpyrrolidin-3-yl]oxy}pyrido[3,4-d]pyrimidin-4-yl)piperazin-1-yl]prop-2-en-1-one]
0.989 |  |  |  | 64 | C=CC(=O)N1CCN(c2nc(OC[C@H]3CCCN3C(C)=O)nc3c(Oc4c(Cl)c(F)cc5[nH]ncc45)nccc23)CC1 [Example 04J, 1-[4-(2-{[(2R)-1-acetylpyrrolidin-2-yl]methoxy}-8-[(5-chloro-6-fluoro-1H-indazol-4-yl)oxy]pyrido[3,4-d]pyrimidin-4-yl)piperazin-1-yl]prop-2-en-1-one]
3.7 |  |  | 24 |  | C=CC(=O)N1CCN(c2nc(NCCN3CCN(C)CC3)nc3c(Oc4c(C)ccc5[nH]ncc45)cccc23)CC1 [Example 19F, 1-[4-(8-[(5-methyl-1H-indazol-4-yl)oxy]-2-{[2-(4-methylpiperazin-1-yl)ethyl]amino}quinazolin-4-yl)piperazin-1-yl]prop-2-en-1-one]
0.071 |  |  | 53 |  | C=CC(=O)N1CCN(c2nc(OC[C@@H]3CCCN3C)nc3c(Oc4c(C)c(Cl)cc5[nH]ncc45)nc(Cl)cc23)CC1 [Example 10G, 1-[4-(6-chloro-8-[(6-chloro-5-methyl-1H-indazol-4-yl)oxy]-2-{[(2S)-1-methylpyrrolidin-2-yl]methoxy}pyrido[3,4-d]pyrimidin-4-yl)piperazin-1-yl]prop-2-en-1-one]
4.89 |  |  | 21 |  | C=CC(=O)N1CCN(c2nc(O[C@@H]3CCC[C@H]3N(C)C)nc3c(Oc4c(C)ccc5[nH]ncc45)nccc23)CC1 [Example 11B, 1-[4-(2-{[(1R,2R)-2-(dimethylamino)cyclopentyl]oxy}-8-[(5-methyl-1H-indazol-4-yl)oxy]pyrido[3,4-d]pyrimidin-4-yl)piperazin-1-yl]prop-2-en-1-one]
0.026 | 69 |  |  |  | C=CC(=O)N1CCN(c2nc(O[C@@H]3CN(CC)C[C@H]3OC)nc3c(Oc4c(Cl)c(F)cc5[nH]ncc45)nccc23)CC1 [Example 17H, 1-[4-(8-[(5-chloro-6-fluoro-1H-indazol-4-yl)oxy]-2-{[(3R,4R)-1-ethyl-4-methoxypyrrolidin-3-yl]oxy}pyrido[3,4-d]pyrimidin-4-yl)piperazin-1-yl]prop-2-en-1-on]
0.074 |  |  |  | 70 | C=CC(=O)N1CCN(c2nc(Oc3cccnc3C(C)C)nc3c(Oc4c(Cl)c(F)cc5[nH]ncc45)nccc23)CC1 [Example 05I, 1-[4-(8-[(5-chloro-6-fluoro-1H-indazol-4-yl)oxy]-2-{[2-(propan-2-yl)pyridin-3-yl]oxy}pyrido [3,4-d]pyrimidin-4-yl)piperazin-1-yl]prop-2-en-1-one]
0.585 |  | 75 | 70 | 35 | C=CC(=O)N1CCN(c2nc(OC[C@H]3CCCN3C)nc3c(Oc4c(C)ccc5[nH]ncc45)cccc23)CC1 [Example 06E, 1-[4-(8-[(5-methyl-1H-indazol-4-yl)oxy]-2-{[(2R)-1-methylpyrrolidin-2-yl]methoxy}quinazolin-4-yl)piperazin-1-yl]prop-2-en-1-one]
1.02 |  | 61 |  |  | C=CC(=O)N1CCN(c2ncnc3c(Oc4c(C)c(Cl)cc5[nH]ncc45)nc(C#N)cc23)CC1 [Example 28A, 4-(4-acryloylpiperazin-1-yl)-8-[(6-chloro-5-methyl-1H-indazol-4-yl)oxy]pyrido[3,4-d]pyrimidine-6-carbonitrile]
0.468 |  | 67 |  |  | C=CC(=O)N1CCN(c2ncnc3c(Oc4c(Cl)c(C)cc5[nH]ncc45)nc(Cl)cc23)CC1 [Example 15A, 1-(4-{6-chloro-8-[(5-chloro-6-methyl-1H-indazol-4-yl)oxy]pyrido[3,4-d]pyrimidin-4-yl}piperazin-1-yl)prop-2-en-1-one]
